# Laboratory results: patent US20120214822A1 (ASTRAZENECA AB, priority 2007, published 2012)
# Biological target: human active recombinant p38α-6His tagged (Homo sapiens, UniProt Q16539)
# Experiment: P38 Alpha Enzyme Assay (AlphaScreen, biotinylated-ATF2 substrate);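 further: 0.5 nM final p38α, reaction started with ATP and run 45 min at 37 °C, phospho-ATF2 read by antibody-based AlphaScreen, background wells quenched with EDTA before ATP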
# Assay type: biochemical
# Details: p38 alpha enzyme inhibition; means of replicate determinations; 4 h pre-incubation at 37° C.; SD of assay 0.2-0.3 log units
# Sequence of human active recombinant p38α-6His tagged (Q16539 whole entry): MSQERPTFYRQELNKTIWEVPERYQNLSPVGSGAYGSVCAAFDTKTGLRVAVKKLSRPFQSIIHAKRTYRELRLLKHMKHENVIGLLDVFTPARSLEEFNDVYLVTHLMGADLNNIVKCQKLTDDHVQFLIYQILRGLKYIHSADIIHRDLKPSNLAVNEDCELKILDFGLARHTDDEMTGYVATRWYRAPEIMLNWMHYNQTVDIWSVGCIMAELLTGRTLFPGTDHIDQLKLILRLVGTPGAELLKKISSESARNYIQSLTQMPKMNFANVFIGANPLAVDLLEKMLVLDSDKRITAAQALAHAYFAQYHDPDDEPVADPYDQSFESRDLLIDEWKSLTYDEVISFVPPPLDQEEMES
Compound,pIC50,IC50 [nM]
"Cc1ccc(C(=O)NC2CC2)cc1-n1ccnc(N[C@@H](c2ccccc2)[C@@H](C)CNC2CCNCC2)c1=O [Example 195, N-Cyclopropyl-4-methyl-3-[3-[[(1R,2S)-2-methyl-1-phenyl-3-(4-piperidinylamino)propyl]amino]-2-oxo-1(2H)-pyrazinyl]-benzamide]",8.8,
"CNCCOc1ccccc1C(C)(C)Nc1nccn(-c2cc(C(=O)NC3(C)CC3)ccc2C)c1=O [Example 227, 4-Methyl-N-(1-methylcyclopropyl)-3-[3-[[1-methyl-1-[2-[2-(methylamino)ethoxy]phenyl]ethyl]amino]-2-oxo-1(2H)-pyrazinyl]-benzamide]",8.5,
"Cc1cccc(C2CCCCN2c2nccn(-c3cc(C(=O)NC4CC4)ccc3C)c2=O)c1 (centres unmarked) [Example 94, N-Cyclopropyl-4-methyl-3-[3-[2-(3-methylphenyl)-1-pipendinyl]-2-oxo-1(2H)-pyrazinyl]-benzamide]",7.5,
"Cc1ccc(C(=O)NC2CC2)cc1-n1ccnc(N2CCc3ccccc3C2)c1=O [Example 30, N-Cyclopropyl-3-[3-(3,4-dihydro-2(1H)-isoquinolinyl)-2-oxo-1(2H)-pyrazinyl]-4-methyl-benzamide]",,126
"Cc1ccccc1CCNc1nccn(-c2cc(C(=O)NC3CC3)ccc2C)c1=O [Example 72, N-Cyclopropyl-4-methyl-3-[3-[[2-(2-methylphenyl)ethyl]amino]-2-oxo-1(2H)-pyrazinyl]-benzamide]",7.2,
"CONC(=O)c1ccc(C)c(-n2ccnc(NC(C)(C)c3ccccc3)c2=O)c1 [Example 112, N-Methoxy-4-methyl-3-[3-[(1-methyl-1-phenylethyl)amino]-2-oxo-1(2H)-pyrazinyl]]",9.4,
"Cc1ccc(C(=O)NC2CC2)cc1-n1ccnc(NC(C)(C)c2ccccc2OCCNC[C@H](C)O)c1=O [Example 213, N-Cyclopropyl-3-[3-[[1-[2-[2-[[(2S)-2-hydroxypropyl]amino]ethoxy]phenyl]-1-methylethyl]amino]-2-oxo-1(2H)-pyrazinyl]-4-methyl-6-benzamide]",9.9,
"Cc1ccc(C(=O)NC2CC2)cc1-n1ccnc(N[C@@H](c2ccccc2)[C@@H](C)CN2CC3CC2CN3C)c1=O (stereo partly drawn) [Example 196, N-Cyclopropyl-4-methyl-3-[3-[[(1R,2S)-2-methyl-3-(5-methyl-2,5-diazabicyclo[2.2.1]hept-2-yl)-1-phenylpropyl]amino]-2-oxo-1(2H)-pyrazinyl]-benzamide]",8.9,
4-Methyl-3-[3-[[[4-(4-methyl-1-piperazinyl)phenyl]methyl]amino]-2-oxo-1(2H)-pyrazinyl]-N-(1-methylpropyl)-benzamide [Example 14],6,
"Cc1ccc(C(=O)NC2CC2)cc1-n1ccnc(NC2(c3ccccc3OCCN3CCC(F)(F)C3)CC2)c1=O [Example 244, N-Cyclopropyl-3-[3-[[1-[2-[2-(3,3-difluoro-1-pyrrolidinyl)ethoxy]phenyl]cyclopropyl]amino]-2-oxo-1(2H)-pyrazinyl]-4-methyl-benzamide]",9.2,
"CNCCCCOc1ccccc1C(C)(C)Nc1nccn(-c2cc(C(=O)NC3CC3)ccc2C)c1=O [Example 204, N-Cyclopropyl-4-methyl-3-[3-[[1-methyl-1-[2-[4-(methylamino)butoxy]phenyl]ethyl]amino]-2-oxo-1(2H)-pyrazinyl]-benzamide]",9.8,
"COC[C@@H]1CCCN1C[C@@H](C)[C@@H](Nc1nccn(-c2cc(C(=O)NC3CC3)ccc2C)c1=O)c1ccccc1 [Example 150, N-Cyclopropyl-3-[3-[[(1R,2R)-3-[(2S)-2-(methoxymethyl)-1-pyrrolidinyl]-2-methyl-1-phenylpropyl]amino]-2-oxo-1(2H)-pyrazinyl]-4-methyl-benzamide]",7.9,
"CNCCCOc1ccccc1C1CCCN1c1nccn(-c2cc(C(=O)NC3CC3)ccc2C)c1=O (centres unmarked) [Example 324, N-Cyclopropyl-4-methyl-3-[3-(2-{2-[3-(methylamino)propoxy]phenyl}pyrrolidin-1-yl)-2-oxopyrazin-1(2H)-yl]benzamide]",8.1,
"Cc1ccc(C(=O)NC2CC2)cc1-n1ccnc(NC(CN2CCCC2)c2ccccc2)c1=O (centres unmarked) [Example 34, N-Cyclopropyl-4-methyl-3-[2-oxo-3-[[1-phenyl-2-(1-pyrrolidinyl)ethyl]amino]-1(2H)-pyrazinyl]-benzamide]",6.4,
"Cc1ccc(C(=O)NC2CC2)cc1-n1ccnc(NCCCN2CCOCC2)c1=O [Example 6, N-Cyclopropyl-4-methyl-3-[3-[[3-(4-morpholinyl)propyl]amino]-2-oxo-1(2H)-pyrazinyl]-benzamide]",6.5,
"Cc1ccc(C(=O)NC2CC2)cc1-n1ccnc(NC(C)(C)c2ccccc2OC2CCNCC2)c1=O [Example 219, N-Cyclopropyl-4-methyl-3-[3-[[1-methyl-1-[2-(4-piperidinyloxy)phenyl]ethyl]amino]-2-oxo-1(2H)-pyrazinyl]-benzamide]",9.3,
"CSc1ccccc1CNc1nccn(-c2cc(C(=O)NC3CC3)ccc2C)c1=O [Example 128, N-Cyclopropyl-4-methyl-3-[3-[[[2-(methylthio)phenyl]methyl]amino]-2-oxo-1(2H)-pyrazinyl]-benzamide]",8.2,
"CNCCOc1ccccc1C(C)(C)Nc1nccn(-c2cc(C(=O)NC3CC3)cc(F)c2C)c1=O [Example 169, N-Cyclopropyl-3-fluoro-4-methyl-5-[3-[[1-methyl-1-[2-[2-(methylamino)ethoxy]phenyl]ethyl]amino]-2-oxo-1(2H)-pyrazinyl]-benzamide]",9.9,
"Cc1cccc([C@H](Nc2nccn(-c3cc(C(=O)NC4CC4)ccc3C)c2=O)[C@@H](C)CN2CCCC2)c1 [Example 276, N-Cyclopropyl-3-[3-[[(1R,2S)-1-(3-methylphenyl)-2-methyl-3-(1-pyrrolidinyl)propyl]amino]-2-oxo-1(2H)-pyrazinyl]-4-methyl-benzamide]",8.8,

# Next, values leading:
pIC50,IC50 [nM],Compound
7,,"Cc1ccc(C(=O)NC2CC2)cc1-n1ccnc(NCC2CNc3ccccc3C2)c1=O (centres unmarked) [Example 29, N-Cyclopropyl-4-methyl-3-[2-oxo-3-[[(1,2,3,4-tetrahydro-3-quinolinyl)methyl]amino]-1(2H)-pyrazinyl]-benzamide]"
6.5,,"Cc1ccc(C(=O)NC2CC2)cc1-n1ccnc(N(C)CCc2ccccc2)c1=O [Example 66, N-Cyclopropyl-4-methyl-3-[3-[methyl(2-phenylethyl)amino]-2-oxo-1(2H)-pyrazinyl]benzamide]"
6.8,,"CNCCOc1ccccc1C(C)(C)Nc1nccn(-c2cc(C(=O)NCCO)ccc2C)c1=O [Example 228, N-(2-Hydroxyethyl)-4-methyl-3-[3-[[1-methyl-1-[2-[2-(methylamino)ethoxy]phenyl]ethyl]amino]-2-oxo-1(2H)-pyrazinyl]-benzamide]"
10.2,,"CCCNCCOc1ccccc1C1(Nc2nccn(-c3cc(C(=O)NC4CC4)ccc3C)c2=O)CC1 [Example 298, N-Cyclopropyl-4-methyl-3-{2-oxo-3-[(1-{2-[2-(propylamino)ethoxy]phenyl}cyclopropyl)amino]pyrazin-1(2H)-yl}benzamide]"
9.9,,"Cc1ccc(C(=O)NC2CC2)cc1-n1ccnc(NC(C)(C)c2ccccc2OC[C@H](N)CO)c1=O [Example 305, 3-[3-{[1-(2-{[(2R)-2-Amino-3-hydroxypropyl]oxy}phenyl)-1-methylethyl]amino}-2-oxopyrazin-1(2H)-yl]-N-cyclopropyl-4-methylbenzamide]"
8.1,,"CNCCOc1ccccc1C(C)(C)Nc1nccn(-c2cc(C(=O)NC(C)C)ccc2C)c1=O [Example 223, 4-Methyl-N-(1-methylethyl)-3-[3-[[1-methyl-1-[2-[2-(methylamino)ethoxy]phenyl]ethyl]amino]-2-oxo-1(2H)-pyrazinyl]-benzamide]"
9.1,,"Cc1ccc(C(=O)NC2CC2)cc1-n1ccnc(N[C@@H](c2ccccc2)[C@@H](C)CN2CCC(CO)CC2)c1=O [Example 151, N-Cyclopropyl-3-[3-[[(1R,2S)-3-[4-(hydroxymethyl)-1-piperidinyl]-2-methyl-1-phenylpropyl]amino]-2-oxo-1(2H)-pyrazinyl]-4-methyl-benzamide]"
10.5,,"COCCNCCOc1ccccc1C1(Nc2nccn(-c3cc(C(=O)NC4CC4)cc(F)c3C)c2=O)CC1 [Example 261, N-Cyclopropyl-3-fluoro-5-[3-[[1-[2-[2-[(2-methoxyethyl)amino]ethoxy]phenyl]cyclopropyl]amino]-2-oxo-1(2H)-pyrazinyl]-4-methyl-benzamide]"
10.5,,"Cc1c(F)cc(C(=O)NC2CC2)cc1-n1ccnc(NC(C)(C)c2ccccc2OCCNC[C@@H](C)O)c1=O [Example 256, N-Cyclopropyl-3-fluoro-5-[3-[[1-[2-[2-[[(2R)-2-hydroxypropyl]amino]ethoxy]phenyl]-1-methylethyl]amino]-2-oxo-1(2H)-pyrazinyl]-4-methyl-benzamide]"
10.1,,"CCNC[C@H](O)COc1ccccc1C1(Nc2nccn(-c3cc(C(=O)NC4CC4)ccc3C)c2=O)CC1 [Example 303, N-cyclopropyl-3-[3-{[1-(2-{[(2S)-3-(ethylamino)-2-hydroxypropyl]oxy}phenyl)cyclopropyl]amino}-2-oxopyrazin-1(2H)-yl]-4-methylbenzamide]"
9.2,,"Cc1ccc(C(=O)NC2CC2)cc1-n1ccnc(N[C@@H](c2ccccc2)[C@@H](C)CNC(C)(C)C)c1=O [Example 153, N-Cyclopropyl-3-[3-[[(1R,2S)-3-[(1,1-dimethylethyl)amino]-2-methyl-1-phenylpropyl]amino]-2-oxo-1(2H)-pyrazinyl]-4-methyl-benzamide]"
9,,"Cc1ccc(C(=O)NC2CC2)cc1-n1ccnc(N[C@@H](c2ccccc2)[C@@H](C)CN2CCC(F)(F)CC2)c1=O [Example 175, N-Cyclopropyl-3-[3-[[(1R,2S)-3-(4,4-difluoro-1-piperidinyl)-2-methyl-1-phenylpropyl]amino]-2-oxo-1(2H)-pyrazinyl]-4-methyl-benzamide]"
9.6,,"Cc1ccc(C(=O)NC2CC2)cc1-n1ccnc(NC2(c3ccccc3OCCN3CCC[C@H]3CO)CC2)c1=O [Example 239, N-Cyclopropyl-3-[3-[[1-[2-[2-[(2S)-2-(hydroxymethyl)-1-pyrrolidinyl]ethoxy]phenyl]cyclopropyl]amino]-2-oxo-1(2H)-pyrazinyl]-4-methyl-benzamide]"
